Results taken from a compilation of properties of binary mixtures (doi:10.1016/j.molliq.2012.02.014).

Experiment: xn = mol fraction of the nth substance listed
Details: 101 kPa

## CN(CCO)CCO + CCCCCC[n+]1ccn(C)c1.O=S(=O)([N-]S(=O)(=O)C(F)(F)F)C(F)(F)F
308.15 K, x1 = 1
  viscosity: 46.2 mPa·s
323.15 K, x1 = 1
  viscosity: 24.7 mPa·s

## CCCCCC[n+]1ccn(C)c1.O=S(=O)([N-]S(=O)(=O)C(F)(F)F)C(F)(F)F + CN(CCO)CCO
303.15 K, x2 = 0.0989
  viscosity: 52.4 mPa·s
303.15 K, x2 = 0.1899
  viscosity: 46.6 mPa·s
303.15 K, x2 = 0.2977
  viscosity: 40.8 mPa·s
303.15 K, x2 = 0.3999
  viscosity: 37 mPa·s
303.15 K, x2 = 0.4988
  viscosity: 35.1 mPa·s
303.15 K, x2 = 0.6075
  viscosity: 39 mPa·s
303.15 K, x2 = 0.7049
  viscosity: 44.3 mPa·s
303.15 K, x2 = 0.899
  viscosity: 55.1 mPa·s
308.15 K, x2 = 0
  viscosity: 50.4 mPa·s
308.15 K, x2 = 0.1899
  viscosity: 42.1 mPa·s
308.15 K, x2 = 0.2977
  viscosity: 38 mPa·s
308.15 K, x2 = 0.4988
  viscosity: 31.3 mPa·s
308.15 K, x2 = 0.6075
  viscosity: 33.7 mPa·s
308.15 K, x2 = 0.7049
  viscosity: 37.4 mPa·s
308.15 K, x2 = 0.801
  viscosity: 40.8 mPa·s
308.15 K, x2 = 0.899
  viscosity: 43.7 mPa·s
313.15 K, x2 = 0
  viscosity: 41.4 mPa·s
313.15 K, x2 = 0.0989
  viscosity: 39.2 mPa·s
313.15 K, x2 = 0.1899
  viscosity: 36.7 mPa·s
313.15 K, x2 = 0.2977
  viscosity: 34 mPa·s
313.15 K, x2 = 0.4988
  viscosity: 29.8 mPa·s
313.15 K, x2 = 0.7049
  viscosity: 31.8 mPa·s
313.15 K, x2 = 0.801
  viscosity: 34.3 mPa·s
318.15 K, x2 = 0
  viscosity: 35 mPa·s
318.15 K, x2 = 0.0989
  viscosity: 33.1 mPa·s
318.15 K, x2 = 0.1899
  viscosity: 30.8 mPa·s
318.15 K, x2 = 0.2977
  viscosity: 27.9 mPa·s
318.15 K, x2 = 0.3999
  viscosity: 25.4 mPa·s
318.15 K, x2 = 0.4988
  viscosity: 23.9 mPa·s
318.15 K, x2 = 0.6075
  viscosity: 23.8 mPa·s
318.15 K, x2 = 0.801
  viscosity: 27.3 mPa·s
318.15 K, x2 = 0.899
  viscosity: 28.9 mPa·s
323.15 K, x2 = 0
  viscosity: 28.8 mPa·s
323.15 K, x2 = 0.0989
  viscosity: 27.7 mPa·s
323.15 K, x2 = 0.1899
  viscosity: 26 mPa·s
323.15 K, x2 = 0.3999
  viscosity: 22.8 mPa·s
323.15 K, x2 = 0.4988
  viscosity: 22.1 mPa·s
323.15 K, x2 = 0.6075
  viscosity: 22.4 mPa·s
323.15 K, x2 = 0.801
  viscosity: 23.7 mPa·s
323.15 K, x2 = 0.899
  viscosity: 24.4 mPa·s
